Laboratory results taken from patent US20070009544A1, “Anti-allergic complex molecules” (priority 1999, published 2007).
≈ marks a conversion by molar mass, not a printed value. Numbered stars: 1 amine (or outer) side, 2 acyl side, 3 side chain; on linkers, the order of the positions; unused ones are H or OH. Square brackets hold non-standard residues; d marks the D form. Peptide text beside a SMILES is read from it. Phe(4-NH2) = Nc1ccc(C[C@H](N)C(=O)O)cc1; Suc = O=C(CCC(=O)[*:2])[*:1]

Assays:
[1] = test system: abdominal skin of C.R rats; assay: Rat skin test: intradermal injection of peptide, then intradermal compound 48/80 or vehicle, wheal area; type: in vivo; conditions: for Mean Wheal Area ± STD, Compound 48/80 / Wheal Area, Compound 48/80 (representative experiment): 0.5 hour before allergic induction; for Mean Wheal Area ± STD, Vehicle / Wheal Area, Vehicle (representative experiment): 0.5 hour before; for Mean Wheal Area ± STD, Vehicle: vehicle instead of compound 48/80
Procedure: The hair of the abdominal area of C.R rats was carefully removed with an electric clipper and a depilatory cream. In each animal the abdominal area was divided to six equal zones that were marked by pen. Each zone was either subjected to peptide treatment or served as a control. In the first set of experiments, the peptide was topically applied as follows: 36 μl of peptide solution at the indicated concentration (dissolved in 72% DMSO in saline) was applied on desired abdominal area. In the second set of experiments, the peptide was injected intradermally as follows: 20 μl of peptide solution at different concentrations (dissolved in 10% DMSO in saline) was injected intradermally to an indicated abdominal area using a 27-gauge sterile needle.
Skin tests were performed 0.5, 1 or 2 hours following application of the peptide. Skin tests were performed by injecting intradermally 20 μl of the allergen (0.1 mg/ml compound 48/80 dissolved in saline) or saline alone, into the center of each marked area on the abdominal skin using a 27-gauge sterile needle. The allergic response was monitored by outlining with a marker the wheals which developed in response to allergen or saline treatment.
To quantitate the skin test results, the marker signs were transferred onto paper with scotch tape. The areas of the wheals were outlined and calculated by a computerized planimeter (Hewlett-Packard), as previously described (Sussman et al., 1982).
Tables 10-16 presents the mean areas of the wheals, which developed in response to intradermal injection of each of the tested peptides, followed by either compound 48/80 or DDW injection applied after 0.5 or 1 hour. Two doses were tested for each peptide-20 and 200 μg (injection of 20 μl from a stock solution of 1 mg/ml or 10 mg/m respectively).
Skin tests on rats using compound 48/80 as the allergen assessed the ability of the peptides of the present invention to block allergic cutaneous reactions. The abdominal skin of the rats was subjected to peptide (indicated concentrations are listed in Tables 17A-17B below) or vehicle treatment (intradermal injection); the allergic response was induced by intradermal injection of compound 48/80 at various times; and the allergic response was quantified by calculating the area of the resultant allergic wheals.

[2] = test system: purified rat peritoneal mast cells; assay: Histamine secretion from intact mast cells incubated with peptide alone (secretagogue side effect); conditions: for Secretagogue (histamine secretion following incubation of mast cell with different concentrations of each peptide): Table 9, no allergen; for Secretagogue (histamine secretion following incubation of mast cell with different concentrations of each peptide) / basal level of histamine secretion compared to control cells: peptide alone; for histamine secretion from mast cells on incubation with increasing concentrations of peptide alone: no additional allergen; for basal level of histamine secretion compared to control cells: increasing concentrations
Procedure: Mast cells from the peritoneal cavity of C.R rats were isolated in Tyrode buffer (137 mM NaCl, 2.7 mM KC1, 1 mM MgCl2, 0.4 mM NaH2PO4, 20 mM Hepes, 1.0 mM CaCl2, 5.6 mM glucose, 1 mg/ml BSA, pH 7.2) and purified over a Ficoll gradient. A suspension of washed peritoneal cells was placed over a cushion of 30% Ficoll 400 (Pharmacia Biotech.) in buffered Saline containing 0.1% BSA; and centrifuged at 150O×g for 15 min. The purity of mast cells recovered from the bottom of the tube was >90%, as assessed by toluidine blue staining.
Purified mast cells (duplicated of 10^5 cells/0.5 ml) were incubated in Tyrode buffer with buffer or with desired concentrations of the indicated peptide for 2 h. at. 37° C. Histamine secretion was subsequently stimulated by the indicated concentration of compound 48/80 (Sigma) dissolved in Tyrode buffer. Incubation with compound 48/80 was carried out for 20 mm.in at 37° C. The reaction was terminated by placing the tubes on ice. The cells were sedimented by centrifugation at 150×g for 5 mm.in and the supernatants were collected. The amount of histamine release was determined as previously described (Aridor et al., 1990). Briefly, cell pellets were lysed using 0.1N NaOH and the volume of each sample was adjusted to 0.5 ml by H2O. Histamine content was assayed using the o-phtalaldehyde (OPT) fluorimetric method (Shore et al., 1959). Aliquots of 0.4 ml from the supernatants and cell lysates were incubated with 1.6 ml H20, 0.4 ml 1N NaOH and 0.1 ml of 10 mg/l ml OPT in methanol, for 4 min at room temperature. The reaction was terminated by the addition of 0.2 ml 3N HCl. Samples were centrifuged at 150×g for 5 min. and 0.2 ml samples were transferred to a 96 well plate. The histamine spectrofluorometric assay was run in microplates using a microplates reader (FL-600, Biotek instruments Winooski, Vt., USA). Samples were excited by light at 340 nm and read at 440 nm. Histamine release was calculated as the percentage of total histamine content (supernatant/pellet+supernatant) in each sample. Each data point represents the average of duplicate measurements. The spontaneously released histamine was subtracted.

[3] = test system: purified rat peritoneal mast cells; type: cell-based; conditions: for maximal inhibition of compound 48/80 induced histamine secretion: 600 μg/ml peptide, compound 48/80 concentration not given; for Inhibitor (extent of inhibition of histamine secretion from mast cells): Table 9, incubation with different concentrations of each peptide, then induction of the allergic reaction
Procedure: 37° C. […] Each data point represents the average of duplicate measurements. The spontaneously released histamine was subtracted.
First, the effect of compound 48/80 on exocytosis from intact mast cells was determined. […] Histamine release was determined and is presented as the net secretion that is % of the total cellular histamine following subtraction of the spontaneously released histamine. Half-maximal release was obtained at 0.1 μg/ml while maximal release was obtained at 1-10 μg/ml. Accordingly, in order to analyze the potential of each peptide to block histamine secretion, histamine secretion was induced with 5 μg/ml compound 48/80, a concentration that induces a maximal histamine release, while the cells were incubated in the presence of increasing concentrations of each peptide.
In order to investigate the ability of these peptides to block allergen-induced exocytosis, the peptides were examined for their ability to block compound 48/80 induced histamine secretion from intact mast cells in vitro. Mast cells were incubated with different concentrations of each peptide, followed by induction of histamine secretion by compound 48/80.

[4] = intradermal peptide 0.5 hour before allergic induction

| SMILES | block of compound 48/80 induced allergic reaction in vivo, rat skin ([1]; intradermal peptide) | Mean Wheal Area ± STD, Compound 48/80 ([1]; intradermal peptide 1 mg/ml) | Mean Wheal Area ± STD, Vehicle ([1]; intradermal peptide 1 mg/ml) | Mean Wheal Area ± STD, Compound 48/80 ([1]; intradermal peptide 10 mg/ml) | Mean Wheal Area ± STD, Vehicle ([1]; intradermal peptide 10 mg/ml) | reduction of compound 48/80 induced allergic reaction [1, 4] | Secretagogue (histamine secretion following incubation of mast cell with different concentrations of each peptide) [2] | histamine secretion from mast cells on incubation with increasing concentrations of peptide alone [2] | basal level of histamine secretion compared to control cells [2] | IC50, compound 48/80 induced histamine secretion [3] [µg/mL] | maximal inhibition of compound 48/80 induced histamine secretion [3] [%] | Inhibitor (extent of inhibition of histamine secretion from mast cells) [3] | reduction of compound 48/80 induced allergic reaction ([1]; intradermal peptide, lower dose or 1 hour before allergic induction) | Wheal Area, Vehicle (representative experiment) ([1]; intradermal peptide 1 mg/ml) [mm^2] | Wheal Area, Compound 48/80 (representative experiment) ([1]; intradermal peptide 1 mg/ml) [mm^2] | Wheal Area, Vehicle (representative experiment) ([1]; intradermal peptide 10 mg/ml) [mm^2] | Wheal Area, Compound 48/80 (representative experiment) ([1]; intradermal peptide 10 mg/ml) [mm^2] |
| --- | --- | --- | --- | --- | --- | --- | --- | --- | --- | --- | --- | --- | --- | --- | --- | --- | --- |
| CC(C)C[C@H](NC(=O)CNC(=O)[C@H](CS)NC(=O)[C@H](CCC(=O)O)NC(=O)[C@H](CCCCN)NC(=O)[C@H](CC(C)C)NC(=O)[C@H](CC(N)=O)NC(=O)[C@H](CCC(=O)O)NC(=O)[C@H](CCCCN)NC(=O)[C@@H]1CCCN1C(=O)[C@H](C)NC(=O)[C@H](CC(C)C)NC(=O)[C@H](CC(C)C)NC(=O)[C@H](C)NC(=O)[C@H](CC(C)C)NC(=O)[C@H](CC(C)C)NC(=O)[C@@H](NC(=O)[C@H](C)NC(=O)[C@@H]1CCCN1C(=O)[C@H](CC(C)C)NC(=O)[C@H](CC(C)C)NC(=O)[C@H](C)NC(=O)[C@@H](NC(=O)[C@H](C)NC(=O)[C@H](C)NC(=O)CCC(=O)O)C(C)C)C(C)C)C(=O)N[C@@H](Cc1ccc(O)cc1)C(=O)O [WALL012] (Suc-AAVALLPAVLLALLAPKENLKECGLY-OH; C-terminus assumed) | effectively block the allergic response in vivo | 104.8 ± 12.6 (n = 5) mm^2 | 71.6 ± 13.8 (n = 5) mm^2 | 75.1 ± 8.5 (n = 5)** mm^2 | 66.7 ± 10.1 (n = 5) mm^2 | significant inhibition | − | did not result in histamine secretion | minor inhibition of the basal level of histamine secretion | 320 (≈ 115 µM) | 97.5 | +++ (+++ Potent inhibitor (≧80% inhibition)) |  |  |  |  |  |
| CC(C)C[C@H](NC(=O)CNC(=O)[C@H](CS)NC(=O)[C@H](CCC(=O)O)NC(=O)[C@H](CCCCN)NC(=O)[C@H](CC(C)C)NC(=O)[C@H](CC(N)=O)NC(=O)[C@H](C)NC(=O)[C@H](CCCCN)NC(=O)[C@@H]1CCCN1C(=O)[C@H](C)NC(=O)[C@H](CC(C)C)NC(=O)[C@H](CC(C)C)NC(=O)[C@H](C)NC(=O)[C@H](CC(C)C)NC(=O)[C@H](CC(C)C)NC(=O)[C@@H](NC(=O)[C@H](C)NC(=O)[C@@H]1CCCN1C(=O)[C@H](CC(C)C)NC(=O)[C@H](CC(C)C)NC(=O)[C@H](C)NC(=O)[C@@H](NC(=O)[C@H](C)NC(=O)[C@H](C)NC(=O)CCC(=O)O)C(C)C)C(C)C)C(=O)N[C@@H](Cc1ccc(O)cc1)C(=O)O [WALL013] (Suc-AAVALLPAVLLALLAPKANLKECGLY-OH; C-terminus assumed) | effectively block the allergic response in vivo | 89.7 ± 13.7 (n = 4)** mm^2 | 74.7 ± 12.0 (n = 4) mm^2 | 96.4 ± 28.4 (n = 4)* mm^2 | 77.3 ± 13.5 (n = 4) mm^2 | significantly reduced | − | did not result in histamine secretion | minor inhibition of the basal level of histamine secretion | 245 (≈ 89.5 µM) | 100 | +++ (+++ Potent inhibitor (≧80% inhibition)) |  |  |  |  |  |
| CC(C)C[C@H](NC(=O)CNC(=O)[C@H](CS)NC(=O)[C@H](CCC(=O)O)NC(=O)[C@H](CCCCN)NC(=O)[C@H](CC(C)C)NC(=O)[C@H](CC(N)=O)NC(=O)[C@H](CC(N)=O)NC(=O)[C@H](CCCCN)NC(=O)[C@@H]1CCCN1C(=O)[C@H](C)NC(=O)[C@H](CC(C)C)NC(=O)[C@H](CC(C)C)NC(=O)[C@H](C)NC(=O)[C@H](CC(C)C)NC(=O)[C@H](CC(C)C)NC(=O)[C@@H](NC(=O)[C@H](C)NC(=O)[C@@H]1CCCN1C(=O)[C@H](CC(C)C)NC(=O)[C@H](CC(C)C)NC(=O)[C@H](C)NC(=O)[C@@H](NC(=O)[C@H](C)NC(=O)[C@H](C)NC(=O)CCC(=O)O)C(C)C)C(C)C)C(=O)N[C@@H](Cc1ccc(N)cc1)C(=O)O [WALL014] (Suc-AAVALLPAVLLALLAPKNNLKECGL[Phe(4-NH2)]-OH; C-terminus assumed) | effectively block the allergic response in vivo | 108.1 ± 15.0 (n = 2) mm^2 | 87.2 ± 1.9 (n = 2) mm^2 | 91.5 ± 34.9 (n = 2) mm^2 | 100.1 ± 38.9 (n = 2) mm^2 | significantly reduced | − | did not result in histamine secretion |  | 230 (≈ 82.8 µM) | 83 | +++ (+++ Potent inhibitor (≧80% inhibition)) | no significant inhibition |  |  |  |  |
| CC(C)C[C@H](NC(=O)CNC(=O)[C@H](CS)NC(=O)[C@H](CCC(=O)O)NC(=O)[C@H](CCCCN)NC(=O)[C@H](CC(C)C)NC(=O)[C@H](CC(N)=O)NC(=O)[C@H](CCC(N)=O)NC(=O)[C@H](CCCCN)NC(=O)[C@@H]1CCCN1C(=O)[C@H](C)NC(=O)[C@H](CC(C)C)NC(=O)[C@H](CC(C)C)NC(=O)[C@H](C)NC(=O)[C@H](CC(C)C)NC(=O)[C@H](CC(C)C)NC(=O)[C@@H](NC(=O)[C@H](C)NC(=O)[C@@H]1CCCN1C(=O)[C@H](CC(C)C)NC(=O)[C@H](CC(C)C)NC(=O)[C@H](C)NC(=O)[C@@H](NC(=O)[C@H](C)NC(=O)[C@H](C)NC(=O)CCC(=O)O)C(C)C)C(C)C)C(=O)N[C@@H](Cc1ccc(O)cc1)C(=O)O [WALL015] (Suc-AAVALLPAVLLALLAPKQNLKECGLY-OH; C-terminus assumed) | effectively block the allergic response in vivo |  |  |  |  | reduced the allergic reaction | − | did not result in histamine secretion | minor inhibition of the basal level of histamine secretion | 300 (≈ 107 µM) | 75 | ++ (++ Moderate inhibitor (50%-70% inhibition)) |  | 110.4 | 100.1 | 89.7 | 75.3 |
